Experimental data taken from US8357687B2, “Macrocyclic indole derivatives useful as hepatitis C virus inhibitors” (priority 2008, dated 2013).

Assays:
[1] = target: T1, NS5B wild-type enzyme genotype 1b (Hepatitis C virus genotype 1b, UniProt Q9WMX2); test: Enzyme binding assay (SPR, Biacore), genotype 1b
T1 construct: NS5B (genotype 1b consensus strain Con1) lacking 21 C-terminal residues; made in house; host or cells: E. coli Rosetta 2 (DE3)
Procedure: (§1) The compounds of formula (I) were examined for their enzymatic binding kinetics or affinity using a Surface Plasmon Resonance (SPR)-based method, i.e. Biacore. A slow dissociation of the inhibiting compound from its viral target (low koff, low Kd) is believed to potentially reduce the development of drug resistance against anti-viral drugs (Dierynck et al. 2007. Journal of Virology, vol. 81, No. 24, 13845-13851). All measurements were performed on a Biacore T100 instrument (GE Healthcare). The purified HIS6-tagged NS5BΔC21 polymerases were immobilized using non-covalent capturing to an NTA sensor chip (GE Healthcare) in immobilization buffer (20 mM MOPS pH 7.4, 500 mM NaCl, 0.005% Tween-P20, 1 mM DTT, 50 μM EDTA). Interaction studies were all performed at 25° C. Inhibitors were serially diluted in running buffer (20 mM Tris-HCl pH 7.4, 150 mM NaCl, 50 μM EDTA, 1 mM DTT, 0.005% Tween-P20) containing 5% dimethyl sulfoxide (DMSO). Single-cycle kinetics were used, in which 5 increasing concentrations of compound were injected for a period of 300 s each in 1 single cycle, and dissociation was monitored for a period of 1200 s. The sensor surface was completely regenerated in between the cycles. Data were analyzed using simultaneous nonlinear regression analysis (global fitting) adapted for single-cycle kinetics with Biacore T100 BiaEval evaluation software 2.0 (GE Healthcare). The individual rate constants kon and koff and a derived affinity constant, Kd=koff/kon, were determined by a kinetic evaluation of the sensorgrams. The kinetic models accounted for bulk and limited mass transport effects. Every analysis was performed at least in two independent experiments. The dissociation rate of a kinetic interaction can be translated into a compound residence time (dissociative half-life t1/2=ln(2)/koff) representative for the interaction time between the polymerase and its inhibitor.
(§2) The observed association rate constants (kon), dissociation rate constants (koff), derived affinity constant (Kd) and dissociative half-life (t1/2) measured for compounds of formula (I) or subgroups thereof on NS5B wild-type enzyme genotypes 1a, 1b and 4a are given in Table 2.

[2] = test system: wild type replicon of genotype 1b (con1b) in Huh7-cure cells; test: Transient replicon assay, wild type replicon of genotype 1b (Con1b); type: cell-based, HCV genotype 1b; details: Hepatitis C virus, transient wild type replicon genotype 1b, 48 h, luciferase, read-out: EC50-T Con1b
[3] = target: T2, NS5B wild-type enzyme genotype 1a (Hepatitis C virus genotype 1a, UniProt P27958); test: Enzyme binding assay (SPR, Biacore), genotype 1a; design: species or system HCV genotype 1a
T2 construct: The purified HIS6-tagged NS5BΔC21 polymerases were immobilized; made in house; host or cells: E. coli Rosetta 2 (DE3)
Procedure: as §1, §2

[4] = target: T3, HCV NS5B polymerase (NS5BΔC21) (Hepatitis C virus genotype 1b, UniProt Q9WMX2); test: RNA-dependent RNA polymerase assay (enzyme inhibition assay); type: biochemical, HCV (genotype 1b consensus strain Con1)
T3 construct: NS5B (genotype 1b consensus strain Con1) lacking 21 C-terminal residues; made in house; host or cells: E. coli Rosetta 2 (DE3)
Excerpt: The coding sequence for NS5B (genotype 1b consensus strain Con1) lacking 21 C-terminal residues was amplified from plasmid pFKI389/ns3-3′ (Genbank accession no. AJ242654), plasmid pCV-H77C (Genbank accession no. AF 011751.1) and subcloned into the pET21b plasmid as described previously (Pauwels et al. J. Virol., 2007). The NS5BΔC21 expression constructs were transformed into E. coli Rosetta 2 (DE3) (Novagen, Madison, Wis.). One hundred milliliters of LB-medium supplemented with carbenicillin (50 μg/mL) and chloramphenicol (34 μg/mL) was inoculated with one colony, grown overnight, and transferred to fresh LB-medium supplemented with 3% ethanol, carbenicillin and chloramphenicol, at a ratio of 1:200. Cells were grown to an optical density at 600 nm of 0.6, after which the expression cultures were shifted to a growth temperature of 20° C. following induction with ispopropyl-1-thio-β-D-galactopyranoside and MgCl2 at a final concentration of 0.4 mM and 10 μM, respectively. After 18 h of induction, cells were harvested by centrifugation and resuspended in 20 mM Tris-HCl, pH 7.5, 300 mM NaCl, 10% glycerol, 0.1% NP40, 4 mM MgCl2, 5 mM DTT supplemented with EDTA-free Complete Protease Inhibitor (Roche, Basel, Switzerland). Cell suspensions were disrupted by sonication and incubated with 10-15 mg/L of DNase I (Roche, Basel, Switzerland) for 30 min. Cell debris was removed through ultracentrifugation at 30,000×g for 1 hour and clarified cell lysate was flash frozen and stored at −80° C. prior to purification.
Clarified cell lysate was thawed and subsequently loaded onto a 5 mL pre-packed HisTrap FF column equilibrated with 25 mM HEPES, pH 7.5, 500 mM NaCl, 10% glycerol and 5 mM DTT. Proteins were eluted with 500 mM imidazole at a flow rate of 1 mL/min. Fractions containing the protein of interest were applied onto a pre-packed 26/10 HiPrep Desalting Column equilibrated with 25 mM HEPES, pH 7.5, 250 mM NaCl, 10% glycerol and 5 mM DTT. The buffer-exchanged NS5B peak was then applied onto a 6 ml Resource S column. Protein was eluted with an increasing salt gradient and fractions collected. Protein purity was assessed on Nu-PAGE pre-cast gels (Invitrogen, Carlsbad, Calif.). Purified NS5B samples were concentrated using Centri-Prep concentrators (Millipore, Billerica, Mass., USA) and protein concentrations were determined by spectrofotometry with the Nanodrop (Nanodrop Technologies, Wilmington, Del., USA).
Measurement of HCV NS5B polymerization activity was performed by evaluating the amount of radio labeled GTP incorporated by the enzyme in a newly synthesized RNA using […] RNA template/primer. The RdRp assay was carried out in 384-well plates. 2.5 nM of purified NS5B enzyme was pre-incubated for 10 min with 150 nM 5′-biotinylated oligo(rG13) primer, 15 nM poly(rC) template, in 18 mM Tris-HCl, pH 7.5, 5 mM MgCl2, 20.5 mM KCl, 17 mM NaCl and 2.5 mM of DTT. The test compounds were the added to the preformed polymerase-template complex, and incubated at room temperature for 15 min before the addition 600 nM of GTP, and 0.13 μCi of [^3H]GTP. 30 μL reaction mixture was incubated at room temperature for 2 h before stopping the reaction by adding 30 μL of streptavidin coated SPA-beads (GE Healthcare, Uppsala, Sweden) in 0.5 M EDTA. […] IC50 values represent the concentration of compound required to decrease by 50% the amount of RNA produced which is measured by the detection of incorporated radiolabeled GTP.

[5] = target: T4, NS5B wild-type enzyme genotype 4a (UniProt O39929); test: Enzyme binding assay (SPR, Biacore), genotype 4a; design: species or system HCV genotype 4a
T4 construct: fused on or other part: His6 tag
Procedure: as §1, §2

[6] = test system: NS5B chimeric replicon of clinical isolate 1a—6 in Huh7-cure cells; test: Transient replicon assay, chimeric replicon of clinical isolate 1a—6 (CI2); type: cell-based, HCV genotype 1a; details: Hepatitis C virus, 48 h, read-out: EC50-T CI2
[7] = test system: NS5B chimeric replicon of clinical isolate 1a_H77 in Huh7-cure cells; test: Transient replicon assay, chimeric replicon of clinical isolate 1a_H77 (CI1); type: cell-based, HCV genotype 1a; details: Hepatitis C virus, 48 h, read-out: EC50-T CI1
[8] = Pharmacokinetic analysis after single oral administration; type: in vivo; details: male Sprague-Dawley rats, single oral dose 10 mg/kg, 7 h post dosing; for Kp at 7 h: rat, liver/plasma, read-out: Lever/plasma ratio
Procedure: Three male Sprague-Dawley rats were given a single oral dose of 10 mg/kg of the studied compounds. The compounds were administered by gavage as a solution in PEG400/2% Vitamine E Tocopherol polyethyleneglycol succinate (Vitamin E-TPGS). 7 hours after administration, the animals were sacrificed and plasma and liver samples taken. The samples were analyzed using a qualified research LC-MS/MS method to determine the concentration of the compound in the liver and the liver-to-plasma ratio at 7 h post dosing.

T2 sequence (P27958 2421-2990): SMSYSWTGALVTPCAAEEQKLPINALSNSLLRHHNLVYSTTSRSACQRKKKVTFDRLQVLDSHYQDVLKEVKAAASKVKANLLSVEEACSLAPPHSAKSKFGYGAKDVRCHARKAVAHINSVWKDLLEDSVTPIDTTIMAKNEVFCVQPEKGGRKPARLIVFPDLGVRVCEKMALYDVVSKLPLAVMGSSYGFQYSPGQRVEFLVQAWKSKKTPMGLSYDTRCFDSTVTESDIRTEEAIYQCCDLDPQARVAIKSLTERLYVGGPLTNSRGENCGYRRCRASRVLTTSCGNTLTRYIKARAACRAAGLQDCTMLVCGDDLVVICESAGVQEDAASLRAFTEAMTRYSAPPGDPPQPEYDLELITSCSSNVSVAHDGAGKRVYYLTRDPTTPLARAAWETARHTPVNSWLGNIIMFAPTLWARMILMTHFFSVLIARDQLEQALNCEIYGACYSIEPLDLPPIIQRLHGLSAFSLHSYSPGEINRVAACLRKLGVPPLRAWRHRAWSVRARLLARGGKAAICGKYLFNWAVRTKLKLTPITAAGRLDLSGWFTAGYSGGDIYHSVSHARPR

Compound	Kd [1]	koff ([1]; genotype 1b, SPR, 25° C.)	kon ([1]; genotype 1b, SPR, 25° C.)	t1/2 (dissociative half-life) ([1]; genotype 1b, t1/2=ln(2)/koff)	EC50 [2]	Kd [3]	koff [3]	kon ([3]; genotype 1a, SPR, 25° C.)	t1/2 (dissociative half-life) ([3]; genotype 1a, t1/2=ln(2)/koff)	IC50 [4]	Kd ([5]; Kd=koff/kon)	koff ([5]; SPR, 25° C.)	kon ([5]; SPR, 25° C.)	t1/2 (dissociative half-life) ([5]; t1/2=ln(2)/koff)	EC50 [6]	EC50 [7]	Concentration Liver [8]	Kp at 7 h [8]
CN1CCCCCNC(=O)COc2cc(F)ccc2-c2c(C3CCCCC3)c3ccc(cc3n2C)C(=O)NS1(=O)=O [Compound 50, 25-cyclohexyl-23-fluoro-10,19-dimethyl-5,6,7,8,9,10-hexahydro-2H-14,18:17,20-di(metheno)-1,11,4,10,12,19-benzoxathiatetraazacyclodocosine-3,13(4H,12H,19H)-dione 11,11-dioxide]	25 nM	0.0006 s⁻¹	2.3E+04 1/MS	19.38 min	254 nM	40 nM	0.0067 s⁻¹	1.7E+05 1/MS	1.72 min	109 nM	9.1 nM	0.002 s⁻¹	2.2E+05 1/MS	5.72 min	156 nM	117 nM		
CN1CCCCN(C)S(=O)(=O)NC(=O)c2ccc3c(C4CCCCC4)c(n(C)c3c2)-c2ccccc2OCC1=O [Compound 15, 24-cyclohexyl-4,9,18-trimethyl-4,5,6,7,8,9-hexahydro-13,17:16,19-di(metheno)-1,10,4,9,11,18-benzoxathiatetraazacyclohenicosine-3,12(2H,11H,18H)-dione 10,10-dioxide]					169 nM					124 nM					99 nM	102 nM	1524 ng/g	99
CN1CCOCCN(C)S(=O)(=O)NC(=O)c2ccc3c(C4CCCCC4)c(n(C)c3c2)-c2ccccc2OCC1=O [Compound 10, 25-cyclohexyl-4,10,19-trimethyl-5,6,9,10-tetrahydro-2H,8H-14,18:17,20-di(metheno)-1,7,11,4,10,12,19-benzodioxathiatetraazacyclodocosine-3,13 (4H,12H,19H)-dione 11,11-dioxide]					75 nM					161 nM					88 nM	121 nM	1717 ng/g	64
